Measured values taken from patent US20150258192A1, “COMPOSITIONS AND METHODS FOR PREVENTING OR TREATING CHRONIC LUNG ALLOGRAFT DYSFUNCTION (CLAD) AND IDIOPATHIC PULMONARY FIBROSIS (IPF)” (priority 2014, published 2015).
No end group written: not given here.

Experiments:
[1] = test system: bleomycin-induced lung fibrosis in C57BL/6 mice; test: Bleomycin mouse model of pulmonary fibrosis (IPF treatment model); type: in vivo; conditions: for lung architecture and collagen distribution (H&E, Masson's trichrome), day 28: daily day 14-28 post bleomycin
Experimental: A mouse model of pulmonary fibrosis was generated by administering 0.025 U of bleomycin/PBS intratracheally to C57BL/6 mice. […] At 21 day post bleomycin delivery (for prevention model) or 28 post bleomycin delivery (for treatment model), groups of mice were sacrificed with a sodium pentobarbital injection (120 mg/kg) and the chest cavity was opened. The right mainstem bronchus was ligated and the right lung was removed. The trachea was cannulated and the left lung was perfused with 4% formaldehyde at 21 cm H2O pressure. The tissue blocks then were embedded in paraffin, and […] sections were prepared for staining. Sections from each animal were stained with hematoxylin and eosin (H&E) to visualize cells or with Masson's Trichrome staining to highlight collagen deposition. […] Stained sections were mounted onto a labeled glass slide with organic mounting medium.
The classic bleomycin model, as depicted in FIG. 10, has been used widely in the literature in the pre-fibrotic stage to test efficacy of any intervention.
More specifically, fibrotic loci in the lungs were induced by delivering intratracheally about 0.025 U of bleomycin (dissolved in PBS) to C57BL/6 mice. […] Mice were sacrificed with a sodium pentobarbital injection (120 mg/kg) and the chest cavity was opened. The right mainstem bronchus was ligated and the right lung is removed. The trachea was cannulated and the left lung was perfused with 4% formaldehyde at 21 cm H2O pressure. The tissue blocks then were embedded in paraffin, and […] sections were prepared, and stained with hematoxylin and eosin (H&E; for pathological examination) or Masson's Trichrome (for collagen staining)
Next, collagen deposition was determined quantitatively by using the standard hydroxyproline assay with whole left lung. Total collagen (soluble and insoluble) deposition was assessed by analyzing hydroxyproline concentrations in murine lungs day 28 post bleomycin injury.

[2] = test system: alpha-smooth muscle actin (α-SMA); test: α-SMA immunostaining of lung sections, bleomycin treatment model; type: in vivo, mouse; conditions: 50 μg/kg/day IP or nebulizer, day 14-28
From the text: C57-BL/6 mice were subjected to bleomycin injury at day 0. […] Formalin-fixed lung tissue sections were immunostained against α-SMA. Control staining was with biotinylated secondary IgG antibody. Streptavidin-conjugated horseradish peroxidase was used with 3,3′-diaminobenzidene as substrate and nuclei was counterstained with hematoxylin. Original magnifications: 20×

YARAAARQARAKALARQLGVAA [MMI-0100]
progression of collagen deposition (hydroxyproline assay, whole left lung), day 28 ([1]; 50 μg/kg/day IP or nebulizer from day 14): significantly arrested further progression
lung architecture and collagen distribution (H&E, Masson's trichrome), day 28 ([1]; intraperitoneally): rescued
lung architecture and collagen distribution (H&E, Masson's trichrome), day 28 ([1]; locally applied to the lung (nebulized)): rescued
level of α-SMA in lungs vs untreated bleomycin-injured lungs [2]: significantly attenuated
